# Results published in US20070140959A1, “Method of preparing rhenium-tricarbonyl complex and its precursor” (priority 2005, published 2007).
# What was measured:
# [1] = type: in vitro ADME, human
# Description: The ^188Re-tricarbonyl histidine complex prepared in Embodiment 2 was dissolved in physiological saline to prepare 37 MBq/ml of a test solution. Of this solution, 25 μl of the solution was added to 475 μl of human plasma (sigma) and then cultured at 37° C. for 24 hours. After the lapse of 0.5, 1, 2, 4 and 24 hours, the fraction of solution was subjected to TLC measurement. As a development solvent, a solvent mixture comprising methanol and conc. hydrochloric acid mixed at a 99:1 ratio was used.
# When the fraction of solution was developed, the labeled complex was shown in the developed portion, and the complex reacted with the plasma protein was shown in the zero point, which were confirmed through HPLC. The HPLC measurement was conducted in the same manner as in Experimental Example 2. In addition, the plasma protein binding was measured using an ITLC isotope scanner.
# [2] = Stability of 188Re(I)-tricarbonyl precursor over time (HPLC); type: physicochemical; settings: for 3 hours, then began to decay
# Description: The HPLC measurement was conducted in order to separate the ^188Re (I)-tricarbonyl precursor synthesized in Embodiment 1.
# The HPLC measurement was carried out with a WATERS system provided with a radiometric detector using methanol (hereinafter, referred to as ‘solvent A’) and 0.05 M triethylammoniumphosphate buffer (TEAP, pH 2.25, hereinafter referred to as ‘solvent B’) using two pumps each equipped with a reverse phase Xterra™ RP18 5 μm column (4.6×250 mm, Waters, Ireland).
# The solvent conditions for HPLC were as follows: in the range of 0 to 5 minutes, 100% solvent A began to flow and was then converted into 100% solvent B; in the range of 5 to 8 minutes, 100% solvent B began to flow and was then converted into 25% solvent A and 75% solvent B; in the range of 8 to 11 minutes, 25% solvent A and 75% solvent B were converted into 34% solvent A and 66% solvent B; in the range of 11 to 22 minutes, 34% solvent A and 66% solvent B were converted into 100% solvent A; and in the range of 22 to 24 minutes, 100% solvent A was converted into 100% solvent B. The flow rate of solvent was maintained at 1 ml/min for the entire time. In addition, in order to rapidly bring the column to a state of equilibrium, during the next 5 min, the solvent was supplied at 2 ml/min for 2 minnutes and then at the former solvent flow rate for 3 min. […]
plasma stability (in words) [1],Substance,fraction of precursor stable [2] [%]
high plasma stability,^188Re (I)-tricarbonyl histidine complex [^188Re-tricarbonyl histidine complex],
,^188Re-tricarbonyl precursor [^188Re (I)-tricarbonyl precursor],≥ 95
